Publication PMC10007235 (Polymers, 2023)

Key:
[1] = design: method as in a previous report; details: absence of polymer; ref a previous report; cited from earlier work
[2] = Nucleation induction time measurement from supersaturated solution; format: physicochemical; details: for Nucleation induction time / Time high (supersaturated) concentration maintained: 25 °C
Protocol: HPLC was analyzed using a Dionex-Ultimate 3000 HPLC (Dionex, Sunnyvale, CA, USA) equipped with an Inertsil ODS C18 (6.0 × 150 mm) column at 35 °C. […] The samples were analyzed by injecting 10 μL at 244 nm using a UV detector. […] The linearity was evaluated by linear regression analysis calculated using the least-squares regression method. […] The experiment was performed in triplicate (mean values + SD). Each polymer (chitosan and HPMC) was dissolved in an aqueous solution at a concentration of 500 μg/mL.

Nucleation induction time ([2]; HPMC solution 500 μg/mL): 32 h | Nucleation induction time ([2]; absence of polymer (water)): 0.5 h | Nucleation induction time ([2]; chitosan solution 500 μg/mL): 24 h | Time high (supersaturated) concentration maintained ([2]; chitosan solution 500 μg/mL): 24 h | Time high (supersaturated) concentration maintained ([2]; water): 0.5 h | Enhancement in induction time ([2]; with chitosan and HPMC versus no polymer): 48–64 fold
Compound: CC(C)c1nc(CN(C)C(=O)N[C@H](C(=O)N[C@@H](Cc2ccccc2)C[C@H](O)[C@H](Cc2ccccc2)NC(=O)OCc2cncs2)C(C)C)cs1 [RTV, ritonavir]
Induction time [1]: 120 min
